According to ChEMBL document CHEMBL3045906, “LCMS/MS method for simultaneous analysis of cladrin and equol in rat plasma and its application in pharmacokinetics study of cladrin” (Med Chem Res, 2011):

What was measured:
Plasma = test: Drug recovery in Rattus norvegicus (rat) plasma at 50 ng/ml by LLE method; assay type: ADME, cell-free
[1] = Stability of the compound in Rattus norvegicus (rat) plasma at 62.5 ng/ml after 2 months at -80 degC; assay type: ADME, cell-free; settings: read-out: Stability
[2] = Stability of the compound in Rattus norvegicus (rat) plasma at 1000 ng/ml after three 24 hr cycles of freeze-thaw on storing at -80 degC; assay type: ADME, cell-free; settings: read-out: Stability
[3] = Stability of the compound in Rattus norvegicus (rat) plasma at 62.5 ng/ml after three 24 hr cycles of freeze-thaw on storing at -80 degC; assay type: ADME, cell-free; settings: read-out: Stability
[4] = Stability of the compound in Rattus norvegicus (rat) plasma at 7.8 ng/ml after 2 months at -80 degC; assay type: ADME, cell-free; settings: read-out: Stability
[5] = Stability of the compound in Rattus norvegicus (rat) plasma at 1000 ng/ml after 2 months at -80 degC; assay type: ADME, cell-free; settings: read-out: Stability
[6] = Stability of the compound in Rattus norvegicus (rat) plasma at 7.8 ng/ml after three 24 hr cycles of freeze-thaw on storing at -80 degC; assay type: ADME, cell-free; settings: read-out: Stability
[7] = Cmax in Rattus norvegicus Sprague-Dawley (rat) at 10 mg/kg, po; assay type: ADME, organism-based; set-up: dose 10 mg/kg, route oral; settings: in vivo
[8] = Mean residence time in Rattus norvegicus Sprague-Dawley (rat) at 10 mg/kg, po; assay type: ADME, organism-based; set-up: dose 10 mg/kg, route oral; settings: in vivo
[9] = AUC (0 to alpha) in Rattus norvegicus Sprague-Dawley (rat) at 10 mg/kg, po; assay type: ADME, organism-based; set-up: dose 10 mg/kg, route oral; settings: plasma
[10] = Tmax in Rattus norvegicus Sprague-Dawley (rat) at 10 mg/kg, po; assay type: ADME, organism-based; set-up: dose 10 mg/kg, route oral; settings: in vivo
[11] = Half life in Rattus norvegicus Sprague-Dawley (rat) at 10 mg/kg, po; assay type: ADME, organism-based; set-up: dose 10 mg/kg, route oral; settings: in vivo

## O=c1c(-c2ccccc2)coc2cc(O)ccc12 [7-HYDROXY ISOFLAVONE]
Plasma
  Drug recovery: 85.3%

## Oc1ccc([C@H]2COc3cc(O)ccc3C2)cc1 [AUS-131]
[1]
  remaining at 1461 h, 62.5 ng/ml: 103%
[2]
  remaining at 24 h, 1000 ng/ml: 91.8%
[3]
  remaining at 24 h, 62.5 ng/ml: 94.6%
[4]
  remaining at 1461 h, 7.8 ng/ml: 100%
Plasma
  Drug recovery: 76.5%
[5]
  remaining at 1461 h, 1000 ng/ml: 95.6%
[6]
  remaining at 24 h, 7.8 ng/ml: 93.9%

## COc1ccc(-c2coc3cc(O)ccc3c2=O)cc1OC [CLADRIN]
[1]
  remaining at 1461 h, 62.5 ng/ml: 84.5%
[7]
  Cmax: 44.8 ng/mL
[8]
  MRT: 10.8 h
[9]
  AUC: 609 ng·h/mL
[2]
  remaining at 24 h, 1000 ng/ml: 88.2%
[3]
  remaining at 24 h, 62.5 ng/ml: 98.5%
[4]
  remaining at 1461 h, 7.8 ng/ml: 106%
Plasma
  Drug recovery: 83.5%
[5]
  remaining at 1461 h, 1000 ng/ml: 81.4%
[10]
  Tmax: 30 min
[11]
  half-life: 246 min
[6]
  remaining at 24 h, 7.8 ng/ml: 93.6%
